Values of other authors as cited in patent publication US12414943B2 (ACASTI PHARMA U.S., INC., priority 2022, dated 2025).

Experiments:
[1] = man, oral
[2] = nimodipine-treated SAH patients

For `COCCOC(=O)C1=C(C)NC(C)=C(C(=O)OC(C)C)C1c1cccc([N+](=O)[O-])c1` (centres unmarked) [Nimodipine, isopropyl2-methoxyethyl 1,4-dihydro-2,6-dimethyl-4-(m-nitrophenyl)-3,5-pyridinedicarboxylate], the “half-life equivalent to earlier elimination rates” value [1] is listed as 1 to 2 h and the “concentration in the cerebrospinal fluid” value [2] is listed as ≤ 12.5 ng/mL.
